Key:
[1] = test system: human GlyR α1 subunit P30 (α1β1L) substituted with 2MeP; settings: Table 2, P30 2MeP, n = 5
Description: (§1) The cDNA for the human GlyR α1 subunit was in pGEMHE (ThermoFischer Scientific, Bishops Stortford, UK). Site-directed mutagenesis was performed using QuikChange (Agilent Technologies, Milton Keynes, UK) to generate the appropriate codon. For non-canonical amino acid mutants and conventional mutants generated by nonsense suppression, the site of interest was mutated to the TAG stop codon. Receptor mRNA was then prepared by in vitro runoff transcription using the Ambion T7 mMessage mMachine kit (ThermoFischer Scientific, Bishops Stortford, UK). Noncanonical amino acids were ligated to tRNA as previously described.
(§2) Stage V-VI oocytes of Xenopus laevis were harvested and injected with RNAs as described previously. For nonsense suppression experiments, each cell was injected with 50–100 ng each of receptor mRNA and tRNA charged with the appropriate Pro analogue ~48 h before recording. For wild type and conventional mutants, each cell received a single injection of 10–25 ng of receptor mRNA ~24 h before recording. Injection volumes were 50–100 nL per cell.
(§3) As a negative control for suppression experiments at each site, unligated tRNA was co-injected with mRNA in the same manner as charged tRNA. […] Pro recovery (injecting tRNA charged with Pro to regenerate a wild type channel via nonsense suppression) was used alongside Pro analogues as a positive control.
(§4) Two-electrode voltage clamping of Xenopus oocytes was performed using standard electrophysiological procedures as previously, using an OpusXpress system (Axon Instruments, Inc., Union City, CA, USA). All experiments were performed at 22–25 °C. […] The holding potential was −60 mV unless otherwise specified. […] Data were analysed using Prism (GraphPad Software Inc., San Diego, CA, USA), fitting concentration-response data to the four-parameter logistic equation. Statistical analysis was performed using ANOVA with a Dunnett’s multiple comparisons post test.

[2] = target: human GlyR α1 subunit P230 (M1) substituted with Vah (Homo sapiens, UniProt P23415); settings: Table 2, n = 4
Description: as §1, §2, §3, §4

[3] = target: human GlyR α1 subunit P30 (α1β1L) substituted with Pro (Homo sapiens, UniProt P23415); settings: Table 2, n = 6
Description: as §1, §2, §3, §4

[4] = test system: human GlyR α1 subunit P146 (CysL) substituted with TFP
Description: as §1, §2, §3, §4

[5] = target: human GlyR α1 subunit P230 (M1) substituted with Pro (Homo sapiens, UniProt P23415); settings: Table 2, n = 4
Description: as §1, §2, §3, §4

[6] = test system: human GlyR α1 subunit P96 (loopA) substituted with Pip
Description: as §1, §2, §3, §4

[7] = test system: human GlyR α1 subunit P96 (loopA) substituted with Vah
Description: as §1, §2, §3, §4

[8] = test system: human GlyR α1 subunit P96 (loopA) substituted with CFP
Description: as §1, §2, §3, §4

[9] = test system: human GlyR α1 subunit P230 (M1) substituted with CFP
Description: as §1, §2, §3, §4

[10] = test system: human GlyR α1 subunit P30 (α1β1L) substituted with Pip
Description: as §1, §2, §3, §4

[11] = test system: human GlyR α1 subunit P30 (α1β1L) substituted with Vah
Description: as §1, §2, §3, §4

[12] = test system: human GlyR α1 subunit P30 (α1β1L) substituted with 3MeP; settings: Table 2, P30 3MeP, n = 4
Description: as §1, §2, §3, §4

[13] = test system: human GlyR α1 subunit P230 (M1) substituted with TFP
Description: as §1, §2, §3, §4

[14] = test system: human GlyR α1 subunit P230 (M1) substituted with 3MeP; settings: Table 2, P230 3MeP, n = 4
Description: as §1, §2, §3, §4

[15] = test system: human GlyR α1 subunit P96 (loopA) substituted with 2MeP; settings: Table 2, P96 2MeP, n = 4
Description: as §1, §2, §3, §4

[16] = Table 2, nonsense suppression, n = 5
[17] = Table 2, nonsense suppression, n = 4

Sequence of human GlyR α1 subunit P230 (M1) substituted with Vah (P23415 29-250 limits assumed): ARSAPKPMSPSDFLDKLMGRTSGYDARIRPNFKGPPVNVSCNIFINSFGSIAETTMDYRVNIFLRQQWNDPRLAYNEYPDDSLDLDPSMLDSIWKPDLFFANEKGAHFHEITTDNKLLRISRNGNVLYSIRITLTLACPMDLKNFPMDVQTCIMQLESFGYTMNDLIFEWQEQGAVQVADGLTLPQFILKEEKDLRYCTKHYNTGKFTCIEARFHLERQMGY
Sequence of human GlyR α1 subunit P30 (α1β1L) substituted with Pro (P23415 29-457): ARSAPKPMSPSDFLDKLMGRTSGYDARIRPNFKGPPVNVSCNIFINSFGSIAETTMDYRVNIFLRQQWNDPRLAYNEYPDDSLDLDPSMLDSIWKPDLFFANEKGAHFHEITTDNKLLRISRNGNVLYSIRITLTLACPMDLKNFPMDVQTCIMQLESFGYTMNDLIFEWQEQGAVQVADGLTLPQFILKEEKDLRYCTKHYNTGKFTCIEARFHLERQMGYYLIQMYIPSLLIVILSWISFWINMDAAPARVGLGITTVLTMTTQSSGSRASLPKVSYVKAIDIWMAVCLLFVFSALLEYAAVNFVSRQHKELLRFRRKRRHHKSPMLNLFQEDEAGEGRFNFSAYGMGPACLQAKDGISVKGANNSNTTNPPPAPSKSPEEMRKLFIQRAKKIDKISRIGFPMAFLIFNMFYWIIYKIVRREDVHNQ
Sequence of human GlyR α1 subunit P230 (M1) substituted with Pro (P23415 29-457): as above

NCC(=O)O [Gly, glycine]
nH [1]: 1.6 ± 0.3
EC50 ([1]; nonsense suppression): 368 µM
pEC50 ([1]; nonsense suppression): 3.434 ± 0.06 M
nH [2]: 2.6 ± 0.4
nH [3]: 2.9 ± 1.2
nH ([4]; Table 2, n = 5): 2.3 ± 0.4
EC50 [4, 16]: 156 µM
pEC50 [4, 16]: 3.806 ± 0.05 M
nH [5]: 2.5 ± 0.9
nH ([6]; Table 2, n = 4): 2.9 ± 0.3
EC50 [6, 17]: 215 µM
pEC50 [6, 17]: 3.667 ± 0.02 M
nH ([7]; Table 2, n = 4): 1.5 ± 0.3
EC50 [7, 17]: 94 µM
pEC50 [7, 17]: 4.029 ± 0.05 M
nH ([8]; Table 2, n = 4): 3.2 ± 0.7
EC50 [8, 17]: 145 µM
pEC50 [8, 17]: 3.840 ± 0.05 M
nH ([9]; Table 2, n = 4): 1.4 ± 0.2
EC50 [9, 17]: 74 µM
pEC50 [9, 17]: 4.131 ± 0.04 M
nH ([10]; Table 2, n = 4): 2.7 ± 0.7
EC50 [10, 17]: 36 µM
pEC50 [10, 17]: 4.439 ± 0.03 M
nH ([11]; Table 2, n = 4): 3.8 ± 0.5
EC50 [11, 17]: 21 µM
pEC50 [11, 17]: 4.684 ± 0.03 M
nH [12]: 3.0 ± 2.7
EC50 ([12]; nonsense suppression): 8.9 µM
pEC50 ([12]; nonsense suppression): 5.046 ± 0.05 M
nH ([13]; Table 2, n = 4): 3.0 ± 1.4
EC50 [13, 17]: 125 µM
pEC50 [13, 17]: 3.904 ± 0.06 M
nH [14]: 1.1 ± 0.4
EC50 ([14]; nonsense suppression): 34 µM
pEC50 ([14]; nonsense suppression): 4.471 ± 0.08 M
nH [15]: 2.8 ± 0.5
EC50 ([15]; nonsense suppression): 254 µM
pEC50 ([15]; nonsense suppression): 3.596 ± 0.03 M
